The record followed here is PMC10221159, “Investigation of N-Acetyltransferase 2-Mediated Drug Interactions of Amifampridine: In Vitro and In Vivo Evidence of Drug Interactions with Acetaminophen” (Pharmaceutics, 2023).

Structures are written as SMILES. Where two headings read alike, the source gives them in different places.

This data set in a line: Urinary excretion of amifampridine and 3-N-acetylamifampridine in rats. Type of data set: in vivo, rat. Conditions: Sprague Dawley, rat, urine, oral, 2 mg/kg, 24 h, oral amifampridine 2 mg/kg, read-out: total urinary recovery. As to the method: Urine samples were collected at intervals of 0–4, 4–8, and 8–24 h after the administration of amifampridine to control and acetaminophen-treated rats (n = 6), as described above, and were diluted 500-fold with potassium phosphate buffer. An amount of 200 μL of IS was then added to the samples and vortexed for a minute. After centrifugation at 14,000 rpm for 15 min at 4 °C, the supernatant was transferred into vials for quantification of amifampridine and 3-N-acetylamifampridine.

For `Nc1ccncc1N` [amifampridine], the dose excreted (acetaminophen-treated rats) was determined as 18.9% and the dose excreted (control rats) is 6.7%.
